Reference: publication PMC9951879, “Synthesis of New Shogaol Analogues as NRF2 Activators and Evaluation of Their Anti-Inflammatory Activity, Modes of Action and Metabolic Stability” (Antioxidants, 2023)

Assays:
[1] = test system: NAD(P)H quinone oxidoreductase 1 (NQO1); test: Prochaska microtiter plate bioassay, NQO1 induction in Hepa-1c1c7 cells; type: cell-based, mouse; conditions: Mus musculus, Hepa-1c1c7, 48 h, Hepa-1c1c7 cells, 48 h; read-out: CD (concentration required to double the NQO1 level)
Description: The effect of shogaol thiophene compounds (STCs) on NRF2 activation is determined by measuring the NAD(P)H quinone oxidoreductase 1 (NQO1) inducer activity, as reported in our previous studies. The mouse hepatoma cells (Hepa-1c1c7, 1 × 10^4 per well) were incubated with STCs (10, 1, 0.1, 0.01, and 0.001 µM) for 48 h. The cells were lysed using digitonin (0.8 mg/mL and 2 mM EDTA; Acros, UK), and the protein concentration was determined using Bradford’s assay kit (Thermo Fisher Scientific, USA). The cell lysate was incubated with a reaction mixture of 0.5 M Tris-Cl buffer (Calbiochem, USA), 7.5 mM FAD (Acros, UK), 150 mM glucose-6-phosphate (Calbiochem, San Diego, CA, USA), 2 U/mL glucose-6-phosphate dehydrogenase (Calbiochem, USA), 50 mM NADP+ (Sigma Aldrich, USA), 25 mM menadione (Sigma Aldrich, USA), and 0.7 mM MTT (Sigma Aldrich, USA) at 37 °C for 5 min. The absorbance was recorded at 610 nm using a microplate reader (Spectramax M3, Molecular Devices, San Jose, CA, USA), and the values were normalised to the total protein content.

KEAP1-NRF2 interaction = target: T1, KEAP1-NRF2 interaction (Homo sapiens, UniProt Q14145); test: KEAP1-Nrf2 inhibitor screening, fluorescence polarisation assay; type: binding; conditions: KEAP1 Kelch domain, read-out: IC50, NRF2-KEAP1 inhibition
T1 construct: purchased BPS Bioscience
T1 sequence (Q14145 2-624 limits assumed): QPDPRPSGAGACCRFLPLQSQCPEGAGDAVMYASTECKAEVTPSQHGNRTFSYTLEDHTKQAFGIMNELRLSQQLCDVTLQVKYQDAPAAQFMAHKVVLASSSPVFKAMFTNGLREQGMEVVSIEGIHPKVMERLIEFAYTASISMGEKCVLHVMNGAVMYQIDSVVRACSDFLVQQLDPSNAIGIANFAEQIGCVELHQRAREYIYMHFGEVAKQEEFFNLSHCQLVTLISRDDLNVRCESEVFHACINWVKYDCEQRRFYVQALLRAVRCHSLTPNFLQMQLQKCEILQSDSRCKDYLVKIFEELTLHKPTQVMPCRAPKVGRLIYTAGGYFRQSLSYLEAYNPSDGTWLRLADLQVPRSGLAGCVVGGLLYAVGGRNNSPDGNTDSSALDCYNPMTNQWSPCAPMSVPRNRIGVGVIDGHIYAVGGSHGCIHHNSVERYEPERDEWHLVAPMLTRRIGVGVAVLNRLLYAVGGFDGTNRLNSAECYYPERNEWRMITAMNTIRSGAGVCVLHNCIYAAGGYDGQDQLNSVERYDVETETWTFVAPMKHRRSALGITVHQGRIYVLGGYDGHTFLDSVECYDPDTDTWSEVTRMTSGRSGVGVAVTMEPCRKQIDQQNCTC
Description: The KEAP1-Nrf2 inhibitor screening assay kit (BPS Bioscience, San Diego, California, USA) was used to determine the effect of STCs in inhibiting KEAP1-NRF2 interaction following the manufacturer’s protocol and our reported method. The STC solutions were diluted with the assay buffer, and 5 μL of the STC solutions were incubated at room temperature for 30 min in the peptide mixture containing 0.5 μL NRF2 peptide (1 μM) and 20 μL KEAP1 (15 ng/μL). The fluorescence polarisation (FP) was measured using a microplate reader at λex 485 nm and λem 530 nm. The following equation was used to determine the per cent KEAP1-NRF2 inhibitory effect of the STCs. Keap1−Nrf2 inhbitory activity %=1−Relative FP of STC/Relative FP of postive control×100

GSK-3β = target: T2, GSK-3β (Homo sapiens, UniProt P49841); test: GSK-3β kinase ADP-Glo assay; type: biochemical; conditions: ATP 25 μM, read-out: IC50, GSK-3β enzyme activity
T2 construct: purchased Promega
T2 sequence (P49841 whole entry): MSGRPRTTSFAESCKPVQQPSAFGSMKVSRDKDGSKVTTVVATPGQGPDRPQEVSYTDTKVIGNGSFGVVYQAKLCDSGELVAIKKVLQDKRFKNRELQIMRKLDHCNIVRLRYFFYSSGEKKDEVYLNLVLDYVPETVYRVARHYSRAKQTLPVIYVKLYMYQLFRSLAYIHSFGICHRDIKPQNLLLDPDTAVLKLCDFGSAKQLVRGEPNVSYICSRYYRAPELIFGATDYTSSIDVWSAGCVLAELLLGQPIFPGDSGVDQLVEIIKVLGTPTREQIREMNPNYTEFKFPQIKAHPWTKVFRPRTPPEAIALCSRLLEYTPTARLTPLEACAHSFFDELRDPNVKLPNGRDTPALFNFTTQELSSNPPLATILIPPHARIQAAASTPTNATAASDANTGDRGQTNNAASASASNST
Description: The effect of STCs on GSK-3β activity was determined using GSK-3β kinase enzyme (Promega, WI, USA) and ADP-Glo^TM kinase assay (Promega, USA) following the manufacturer’s protocol and reported method. The STCs were dissolved in the kinase buffer to prepare different concentrations (10, 1, 0.1, 0.01, and 0.001 μM). One microliter of the test compounds was added to each well (384 well plate), followed by the addition of 2 μL of GSK-3β kinase (1 ng), 2 μL of the GSK-3β substrate (0.4 μg), and 2 μL of the ATP (25 μM), and incubated for 60 min. Then, 5 μL of ADP-Glo^TM reagent was added and incubated further for 40 min. Then 10 μL of kinase detection reagent was added and incubated for 30 min. The luminescence was recorded using a SpectraMax®L microplate reader (Molecular Devices, San Jose, CA, USA). The IC50 (concentration of the test compound required to produce half-maximal […]) from dose-response curves using non-linear regression analysis using GraphPad Prism (9.5.0; San Diego, CA, USA) software.

[2] = Liver microsomal stability, human; type: in vitro ADME; conditions: human liver microsomes, 1 μM (verapamil 0.5 μM)
Description: (§1) The liver microsomes of humans, rats, and mice were purchased from Merck (human, #M0567; rat, #M9066; mouse, #M9441). The metabolic stability of 6-shogaol and STCs (1 μM effective concentration; 5 μL) was mixed with liver microsomes (0.5 mg mL^−1; 445 μL) in a microcentrifuge tube. Verapamil (0.5 μM) was used as the positive control. The microsome and compound mixture were shaken on a plate shaker for 5 min to ensure homogeneity. NADPH (1 mM; 50 μL) was added to the mixture to start the metabolic reaction. The reaction mixture was incubated at 37 °C for 0, 3, 6, 15, 30, 45, and 60 min. The mixture (20 μL) was sampled and quenched with 180 μL of acetonitrile with internal standard (Donepezil 50 ng/mL) to terminate the metabolic reaction at each time point. Ultrapure water (80 μL) was added, and contents in the microcentrifuge tubes were centrifuged at 3800 rpm at 4 °C for 10 min. […] Each set of experiments was repeated three times in human, rat, and mouse liver microsomes. The concentration of the compounds versus time was plotted to determine the elimination rate constant (Kel). The intrinsic clearance (Clint) and half-life (t1/2) were calculated using the following equations.

[3] = Liver microsomal stability, rat; type: in vitro ADME; conditions: rat liver microsomes, 1 μM (verapamil 0.5 μM)
Description: as §1

[4] = Liver microsomal stability, mouse; type: in vitro ADME; conditions: mouse liver microsomes, 1 μM (verapamil 0.5 μM)
Description: as §1

Row | SMILES | IC50 (KEAP1-NRF2 interaction) [nM] | IC50 (GSK-3β) [nM] | Clint [2] [mL/min/g liver] | half-life at 1 μM [2] [min] | Clint [3] [mL/min/g liver] | half-life at 1 μM [3] [min] | Clint [4] [mL/min/g liver] | half-life at 1 μM [4] [min] | EC (2-fold NQO1 induction) [1] [µM]
1 | COc1cc(CCC(=O)/C=C/c2ccsc2)ccc1O [STC1, (E)-5-(4-Hydroxy-3-methoxyphenyl)-1(thiophen-3-yl)pent-1-en-3-one] | 860 ± 110 | 420 ± 80 | 7.15 ± 1.24 | 10.2 | 10.63 ± 1.25 | 6.85 | 11.24 ± 1.43 | 6.47 | 4.19 ± 0.44
2 | COc1cc(CCC(=O)/C=C/c2cccs2)ccc1O [STC2, (E)-5-(4-Hydroxy-3-methoxyphenyl)-1-(thiophen-2-yl)pent-1-en-3-one] | 630 | 320 | 6.85 ± 1.62 | 10.6 | 9.46 ± 1.85 | 7.69 | 10.64 ± 1.66 | 6.84 | 2.65 ± 0.27
3 | COc1cc(CCC(=O)/C=C/c2sccc2C)ccc1O [STC3, (E)-5-(4-Hydroxy-3-methoxyphenyl)-1-(3-methylthiophen-2-yl)pent-1-en-3-one] | 540 | 240 | 6.18 ± 1.34 | 11.8 | 9.65 ± 1.54 | 7.54 | 9.27 ± 2.14 | 7.85 | 1.84 ± 0.15
4 | CCc1ccc(/C=C/C(=O)CCc2ccc(O)c(OC)c2)s1 [STC7, (E)-5-(4-Hydroxy-3-methoxyphenyl)-1-(5-ethylthiophen-2-yl)pent-1-en-3-one] | 350 | 190 | 6.27 ± 1.44 | 11.6 | 8.52 ± 1.16 | 8.54 | 7.85 ± 2.51 | 9.27 | 1.48 ± 0.34

Stronger by IC50 (KEAP1-NRF2 interaction), values ahead:

Row | IC50 (KEAP1-NRF2 interaction) [nM] | IC50 (GSK-3β) [nM] | Clint [2] [mL/min/g liver] | half-life at 1 μM [2] [min] | Clint [3] [mL/min/g liver] | half-life at 1 μM [3] [min] | Clint [4] [mL/min/g liver] | half-life at 1 μM [4] [min] | SMILES | EC (2-fold NQO1 induction) [1] [µM]
5 | 280 | 130 | 6.35 ± 1.79 | 11.5 | 8.79 ± 1.94 | 8.28 | 9.67 ± 1.23 | 7.52 | COc1cc(CCC(=O)/C=C/c2cc(Br)cs2)ccc1O [STC4, (E)-5-(4-Hydroxy-3-methoxyphenyl)-1-(4-bromothiophen-2-yl)pent-1-en-3-one] | 0.43 ± 0.09
6 | 290 | 140 | 5.32 ±1.08 | 13.7 | 8.17 ± 1.74 | 8.91 | 7.23 ± 1.34 | 10.1 | COc1cc(CCC(=O)/C=C/c2ccc(Br)s2)ccc1O [STC6, (E)-5-(4-Hydroxy-3-methoxyphenyl)-1-(5-bromothiophen-2-yl)pent-1-en-3-one] | 0.42 ± 0.11
